# In publication PMC11345841, “Exploring 2-Sulfonylpyrimidine Warheads as Acrylamide Surrogates for Targeted Covalent Inhibition: A BTK Story” (Journal of Medicinal Chemistry, 2024):
# Read-outs that look alike come from different tables or passages of the source.
# Assays:
# [1] = target: T1, ABL1(M351T)-phosphorylated (Homo sapiens, UniProt P00519, M351T); assay: KINOMEscan ScanTK; format: binding
# T1 construct: purchased Eurofins DiscoverX KINOMEscan (scanTK)
# VEGFR2 = target: T2, VEGFR2 (Homo sapiens, UniProt P35968); assay: KINOMEscan ScanTK; format: binding
# T2 construct: purchased Eurofins DiscoverX KINOMEscan (scanTK)
# T2 sequence (P35968 20-1356): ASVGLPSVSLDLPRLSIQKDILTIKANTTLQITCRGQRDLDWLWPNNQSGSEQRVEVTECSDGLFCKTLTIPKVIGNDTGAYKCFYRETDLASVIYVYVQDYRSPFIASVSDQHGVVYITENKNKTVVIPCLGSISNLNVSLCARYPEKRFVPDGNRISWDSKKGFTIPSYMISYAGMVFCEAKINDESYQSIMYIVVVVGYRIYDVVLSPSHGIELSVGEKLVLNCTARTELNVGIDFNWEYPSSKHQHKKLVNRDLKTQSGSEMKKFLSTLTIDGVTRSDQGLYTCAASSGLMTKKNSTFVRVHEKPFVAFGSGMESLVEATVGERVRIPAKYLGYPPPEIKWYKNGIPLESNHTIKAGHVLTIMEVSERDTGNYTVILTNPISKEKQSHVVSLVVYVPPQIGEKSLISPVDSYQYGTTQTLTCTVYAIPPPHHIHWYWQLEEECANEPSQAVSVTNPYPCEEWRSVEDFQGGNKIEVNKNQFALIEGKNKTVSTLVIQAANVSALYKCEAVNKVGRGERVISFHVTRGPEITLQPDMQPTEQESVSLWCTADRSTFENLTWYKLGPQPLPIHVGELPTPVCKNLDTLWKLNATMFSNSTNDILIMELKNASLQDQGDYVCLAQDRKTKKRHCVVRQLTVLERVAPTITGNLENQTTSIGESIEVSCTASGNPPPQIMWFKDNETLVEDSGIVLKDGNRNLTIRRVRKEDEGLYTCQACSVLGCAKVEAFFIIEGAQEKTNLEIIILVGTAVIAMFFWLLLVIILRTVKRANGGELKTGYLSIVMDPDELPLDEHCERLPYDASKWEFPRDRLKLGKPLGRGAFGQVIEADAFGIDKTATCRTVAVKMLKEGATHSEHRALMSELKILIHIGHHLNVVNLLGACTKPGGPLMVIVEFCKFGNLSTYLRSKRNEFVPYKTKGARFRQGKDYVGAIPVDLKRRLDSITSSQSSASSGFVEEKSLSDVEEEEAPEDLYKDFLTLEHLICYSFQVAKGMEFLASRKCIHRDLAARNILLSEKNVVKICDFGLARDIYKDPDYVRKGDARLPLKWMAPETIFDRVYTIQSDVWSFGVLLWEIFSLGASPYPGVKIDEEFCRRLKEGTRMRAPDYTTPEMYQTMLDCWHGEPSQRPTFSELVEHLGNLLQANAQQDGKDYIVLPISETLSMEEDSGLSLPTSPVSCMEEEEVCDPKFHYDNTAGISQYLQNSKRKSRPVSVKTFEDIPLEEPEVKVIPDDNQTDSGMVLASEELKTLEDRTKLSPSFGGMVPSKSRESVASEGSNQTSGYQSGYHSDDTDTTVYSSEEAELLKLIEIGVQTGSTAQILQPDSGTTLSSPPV
# [2] = target: T3, ABL1(Y253F)-phosphorylated (Homo sapiens, UniProt P00519, Y253F); assay: KINOMEscan ScanTK; format: binding
# T3 construct: purchased Eurofins DiscoverX KINOMEscan (scanTK)
# FGFR2 = target: T4, FGFR2 (Homo sapiens, UniProt P21802); assay: KINOMEscan ScanTK; format: binding
# T4 construct: purchased Eurofins DiscoverX KINOMEscan (scanTK)
# T4 sequence (P21802 22-821): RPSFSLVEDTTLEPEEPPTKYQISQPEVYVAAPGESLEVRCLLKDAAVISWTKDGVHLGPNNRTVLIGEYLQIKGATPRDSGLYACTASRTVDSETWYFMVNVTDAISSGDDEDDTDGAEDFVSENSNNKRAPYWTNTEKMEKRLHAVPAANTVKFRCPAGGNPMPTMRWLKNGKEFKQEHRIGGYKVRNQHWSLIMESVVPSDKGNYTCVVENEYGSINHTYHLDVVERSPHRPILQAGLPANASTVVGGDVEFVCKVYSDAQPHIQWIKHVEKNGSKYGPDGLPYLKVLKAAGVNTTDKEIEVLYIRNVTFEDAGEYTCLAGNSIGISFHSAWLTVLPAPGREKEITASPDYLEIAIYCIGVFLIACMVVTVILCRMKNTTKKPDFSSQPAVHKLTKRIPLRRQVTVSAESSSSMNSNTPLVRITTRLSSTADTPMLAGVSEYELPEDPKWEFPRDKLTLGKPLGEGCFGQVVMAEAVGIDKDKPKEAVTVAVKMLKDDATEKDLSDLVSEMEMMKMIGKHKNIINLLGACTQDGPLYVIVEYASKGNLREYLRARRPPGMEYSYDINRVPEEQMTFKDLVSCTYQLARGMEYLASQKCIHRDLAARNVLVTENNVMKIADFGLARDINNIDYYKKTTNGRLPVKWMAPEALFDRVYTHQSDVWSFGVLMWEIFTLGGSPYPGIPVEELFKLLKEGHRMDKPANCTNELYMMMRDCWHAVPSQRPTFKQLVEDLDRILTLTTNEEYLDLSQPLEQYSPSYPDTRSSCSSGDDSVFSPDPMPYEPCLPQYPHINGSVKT
# [3] = target: T5, ABL1(Q252H)-phosphorylated (Homo sapiens, UniProt P00519, Q252H); assay: KINOMEscan ScanTK; format: binding
# T5 construct: purchased Eurofins DiscoverX KINOMEscan (scanTK)
# RET(M918T) = target: T6, RET(M918T) (Homo sapiens, UniProt P07949, M918T); assay: KINOMEscan ScanTK; format: binding
# T6 construct: purchased Eurofins DiscoverX KINOMEscan (scanTK)
# T6 sequence (P07949 29-1114 M918T): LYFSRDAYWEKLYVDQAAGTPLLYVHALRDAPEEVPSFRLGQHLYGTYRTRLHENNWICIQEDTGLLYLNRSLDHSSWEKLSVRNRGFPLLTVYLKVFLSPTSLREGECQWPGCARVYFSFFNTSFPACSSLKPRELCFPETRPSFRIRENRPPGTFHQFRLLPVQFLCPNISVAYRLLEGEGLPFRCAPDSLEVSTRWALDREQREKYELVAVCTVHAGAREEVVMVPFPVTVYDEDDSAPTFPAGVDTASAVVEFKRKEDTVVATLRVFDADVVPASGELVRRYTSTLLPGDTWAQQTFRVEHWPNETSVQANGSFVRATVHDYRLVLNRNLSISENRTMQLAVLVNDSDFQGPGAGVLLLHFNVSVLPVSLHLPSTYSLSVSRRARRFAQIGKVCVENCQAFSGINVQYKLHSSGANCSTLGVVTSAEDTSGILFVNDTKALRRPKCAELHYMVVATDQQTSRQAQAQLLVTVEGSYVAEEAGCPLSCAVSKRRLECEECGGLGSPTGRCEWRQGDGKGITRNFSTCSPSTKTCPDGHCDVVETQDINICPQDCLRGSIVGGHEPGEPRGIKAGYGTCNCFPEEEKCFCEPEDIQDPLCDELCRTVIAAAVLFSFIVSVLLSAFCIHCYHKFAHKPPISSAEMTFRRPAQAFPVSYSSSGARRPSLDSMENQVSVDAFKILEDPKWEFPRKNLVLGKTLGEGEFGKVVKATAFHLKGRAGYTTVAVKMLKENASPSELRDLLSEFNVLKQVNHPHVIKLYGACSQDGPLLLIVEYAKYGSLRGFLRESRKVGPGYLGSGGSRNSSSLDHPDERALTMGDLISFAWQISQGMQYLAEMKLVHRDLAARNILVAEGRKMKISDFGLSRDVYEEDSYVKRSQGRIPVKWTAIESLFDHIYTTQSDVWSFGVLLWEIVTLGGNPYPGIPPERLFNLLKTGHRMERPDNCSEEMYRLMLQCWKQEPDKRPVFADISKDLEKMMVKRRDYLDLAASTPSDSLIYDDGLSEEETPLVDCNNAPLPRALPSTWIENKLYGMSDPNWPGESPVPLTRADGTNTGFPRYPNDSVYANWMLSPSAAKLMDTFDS
# EGFR(L861Q) = target: T7, EGFR(L861Q) (Homo sapiens, UniProt P00533, L861Q); assay: KINOMEscan ScanTK; format: binding
# T7 construct: purchased Eurofins DiscoverX KINOMEscan (scanTK)
# T7 sequence (P00533 25-1210 L861Q): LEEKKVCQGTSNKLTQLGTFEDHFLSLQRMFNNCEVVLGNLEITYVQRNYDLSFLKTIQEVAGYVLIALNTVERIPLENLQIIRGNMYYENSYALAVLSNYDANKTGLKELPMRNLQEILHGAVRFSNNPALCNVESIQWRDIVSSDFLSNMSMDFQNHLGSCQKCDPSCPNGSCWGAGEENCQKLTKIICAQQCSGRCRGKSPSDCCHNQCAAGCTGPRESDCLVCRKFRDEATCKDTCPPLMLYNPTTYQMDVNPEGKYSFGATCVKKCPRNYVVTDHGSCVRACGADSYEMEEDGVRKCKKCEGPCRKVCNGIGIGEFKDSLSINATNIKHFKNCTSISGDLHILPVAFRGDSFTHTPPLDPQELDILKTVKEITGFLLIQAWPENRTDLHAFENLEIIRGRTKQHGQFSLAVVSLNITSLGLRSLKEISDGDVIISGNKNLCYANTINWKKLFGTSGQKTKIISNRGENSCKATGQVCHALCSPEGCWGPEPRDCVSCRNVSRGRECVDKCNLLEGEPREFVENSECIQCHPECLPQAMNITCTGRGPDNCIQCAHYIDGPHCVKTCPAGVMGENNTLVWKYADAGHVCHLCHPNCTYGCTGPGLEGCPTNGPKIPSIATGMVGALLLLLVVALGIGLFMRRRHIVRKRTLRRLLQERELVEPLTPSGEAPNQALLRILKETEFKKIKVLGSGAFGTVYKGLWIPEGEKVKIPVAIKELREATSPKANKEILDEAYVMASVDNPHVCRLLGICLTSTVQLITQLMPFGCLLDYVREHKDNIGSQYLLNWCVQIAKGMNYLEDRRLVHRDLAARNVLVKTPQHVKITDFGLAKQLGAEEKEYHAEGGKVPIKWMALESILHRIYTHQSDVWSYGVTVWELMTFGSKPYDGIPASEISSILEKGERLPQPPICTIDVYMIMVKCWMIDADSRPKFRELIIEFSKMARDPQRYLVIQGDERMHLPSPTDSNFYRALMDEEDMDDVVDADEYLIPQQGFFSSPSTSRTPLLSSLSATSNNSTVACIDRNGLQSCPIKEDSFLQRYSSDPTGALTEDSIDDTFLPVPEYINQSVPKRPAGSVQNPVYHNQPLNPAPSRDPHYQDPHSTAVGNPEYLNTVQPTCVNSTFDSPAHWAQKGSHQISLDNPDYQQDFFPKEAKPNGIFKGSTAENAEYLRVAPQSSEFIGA
# TMD8 cells = assay: RNA-seq gene expression; conditions: 8d versus Ibrutinib
compound,measurement,setting,value
"CNC(=O)c1cnc(S(C)(=O)=O)nc1N1CCCC(n2nc(-c3ccc(Oc4ccccc4)cc3)c3c(N)ncnc32)C1 (centres unmarked) [Compound 8d, 4-(3-(4-Amino-3-(4-phenoxyphenyl)-1H-pyrazolo[3,4-d]pyrimidin-1-yl)piperidin-1-yl)-N-methyl-2-(methylsulfonyl)pyrimidine-5-carboxamide]",difference in %Control from compound Ib at 1 µM,[1]; @1000nM,9%
same,remaining binding at 1 µM,"[1]; @1000nM, read-out: %Control",74%
same,remaining binding at 1 µM,[1]; read-out: %Control @1000nM,74%
same,remaining binding at 1 µM,"VEGFR2; @1000nM, read-out: %Control",88%
same,remaining binding at 1 µM,VEGFR2; read-out: %Control @1000nM,88%
same,difference in %Control from compound Ib at 1 µM,[2]; @1000nM,3%
same,remaining binding at 1 µM,"[2]; @1000nM, read-out: %Control",80%
same,remaining binding at 1 µM,[2]; read-out: %Control @1000nM,80%
same,difference in %Control vs compound Ib at 1 µM,FGFR2; @1000nM,35%
same,remaining binding at 1 µM,"FGFR2; @1000nM, read-out: %Control",74%
same,remaining binding at 1 µM,FGFR2; read-out: %Control @1000nM,74%
same,difference in %Control versus reference Ib at 1 µM,"[3]; @1000nM, read-out: % difference (compound - Ib %Control)",-1%
same,remaining binding at 1 µM,"[3]; @1000nM, read-out: %Control",93%
same,remaining binding at 1 µM,[3]; read-out: %Control @1000nM,93%
same,remaining binding at 1 µM,"RET(M918T); @1000nM, read-out: %Control",32%
same,remaining binding at 1 µM,RET(M918T); read-out: %Control @1000nM,32%
same,difference in % of control versus compound Ib at 1 µM,EGFR(L861Q); @1000nM,28.2%
same,remaining binding at 1 µM,"EGFR(L861Q); @1000nM, read-out: %Control",29%
same,remaining binding at 1 µM,EGFR(L861Q); read-out: %Control @1000nM,29%
same,Expr Log Ratio,TMD8 cells; ACTN4,0.022
same,Expr Log Ratio,TMD8 cells; ACVR1C,-0.029
same,Expr Log Ratio,TMD8 cells; APC,0.064
same,Expr Log Ratio,TMD8 cells; APOC1,-0.164
same,Expr Log Ratio,TMD8 cells; ARHGAP31,0.01
same,Expr Log Ratio,TMD8 cells; ARNT2,0.044
same,Expr Log Ratio,TMD8 cells; AURKA,-0.004
same,Expr Log Ratio,TMD8 cells; BLOC1S5,-0.004
same,Expr Log Ratio,TMD8 cells; BMPR2,0.081
same,Expr Log Ratio,TMD8 cells; BRCA1,0.248
same,Expr Log Ratio,TMD8 cells; BRD7,0.035
same,Expr Log Ratio,TMD8 cells; BTRC,0.281
same,Expr Log Ratio,TMD8 cells; CD80,-0.429
same,Expr Log Ratio,TMD8 cells; CDKN1A,-0.127
same,Expr Log Ratio,TMD8 cells; COL1A1,-0.248
same,Expr Log Ratio,TMD8 cells; CREBZF,-0.251
same,Expr Log Ratio,TMD8 cells; CREM,-0.036
same,Expr Log Ratio,TMD8 cells; CTR9,0.099
same,Expr Log Ratio,TMD8 cells; CYB561A3,-0.04
same,Expr Log Ratio,TMD8 cells; DEF6,0.017
same,Expr Log Ratio,TMD8 cells; DNM1L,0.002
same,Expr Log Ratio,TMD8 cells; DTNBP1,0.278
same,Expr Log Ratio,TMD8 cells; DTX1,-0.178
same,Expr Log Ratio,TMD8 cells; ECM1,0.54
same,Expr Log Ratio,TMD8 cells; EHD1,-0.044
same,Expr Log Ratio,TMD8 cells; EIF2AK4,0.093
same,Expr Log Ratio,TMD8 cells; EIF2B5,-0.104
same,Expr Log Ratio,TMD8 cells; ELAVL1,-0.071
same,Expr Log Ratio,TMD8 cells; ESR1,-0.045
same,Expr Log Ratio,TMD8 cells; ETS1,0.064
same,Expr Log Ratio,TMD8 cells; FECH,0.061
same,Expr Log Ratio,TMD8 cells; FGF2,0.272
same,Expr Log Ratio,TMD8 cells; FGFR4,-0.062
same,Expr Log Ratio,TMD8 cells; FTO,-0.134
same,Expr Log Ratio,TMD8 cells; GLIS2,-0.228
same,Expr Log Ratio,TMD8 cells; GNB1,0.033
same,Expr Log Ratio,TMD8 cells; GNB2,-0.086
same,Expr Log Ratio,TMD8 cells; GPI,-0.003
same,Expr Log Ratio,TMD8 cells; GPNMB,0.582
same,Expr Log Ratio,TMD8 cells; GSTP1,-0.086
same,Expr Log Ratio,TMD8 cells; H1-2,-0.09
same,Expr Log Ratio,TMD8 cells; HDAC1,-0.011
same,Expr Log Ratio,TMD8 cells; HDAC8,-0.281
same,Expr Log Ratio,TMD8 cells; HNRNPAB,-0.136
same,Expr Log Ratio,TMD8 cells; HSF2,-0.15
same,Expr Log Ratio,TMD8 cells; HTATIP2,0.03
same,Expr Log Ratio,TMD8 cells; IL1A,0.332
same,Expr Log Ratio,TMD8 cells; ING1,-0.221
same,Expr Log Ratio,TMD8 cells; KDM6B,-0.137
same,Expr Log Ratio,TMD8 cells; LOX,-0.113
same,Expr Log Ratio,TMD8 cells; LOXL2,0.149
same,Expr Log Ratio,TMD8 cells; MAPK8,-0.028
same,Expr Log Ratio,TMD8 cells; MAPK9,0.146
same,Expr Log Ratio,TMD8 cells; MAPKAP1,-0.077
same,Expr Log Ratio,TMD8 cells; MDM4,-0.082
